Reference: the supplement of paper PMC10627819

Assays:
S. aureus DSM 20231 [1] = test: Bliss interaction score (quartile over a dose matrix) (fitness difference); higher = more antagonism (negative = synergy)
How it was run: (§1)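 The Bliss score is observed minus expected fitness, where expected fitness is the product of the single-drug fitness values inferred from the combination data. Fitness is the OD595 at the onset of stationary phase over the plate's robust no-drug mean, capped at 1. Scores are summarised by quartiles over technical, biological and donor/recipient replicates.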

S. aureus Newman [2] = test: as above
How it was run: as §1

B. subtilis 168 = test: as above
How it was run: as §1

S. pneumoniae D39V [3] = test: as above
How it was run: as §1

S. aureus DSM 20231 [4] = test: fitness (endpoint OD595 vs no drug) (fraction); higher = more growth
How it was run: (§2)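 Fitness compares growth at the stationary-phase transition with the robust mean of no-drug control wells, as a ratio of optical densities. The ratio is capped at 1. Wells of 384-well plates held 30 µl, or 55 µl for S. pneumoniae, inoculated at OD595 0.01. Readings at OD595 every 30 min for 14 h at 37 °C were corrected against the first reading.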

S. aureus Newman [5] = test: as above
How it was run: as §2

S. pneumoniae D39V [6] = test: as above
How it was run: as §2
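For Bliss interaction score (quartile over a dose matrix) in this document: first quartile when negative (synergy) and third quartile when positive (antagonism).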
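For fitness (endpoint OD595 vs no drug) in this document: OD595 on entry to stationary phase over no-drug wells; at most 1.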

CC1(C)S[C@@H]2[C@H](NC(=O)[C@H](N)c3ccc(O)cc3)C(=O)N2[C@H]1C(=O)O [Amoxicillin] + COc1cccc2c1C(=O)c1c(O)c3c(c(O)c1C2=O)C[C@@](O)(C(=O)CO)C[C@@H]3O[C@H]1C[C@H](N)[C@H](O)[C@H](C)O1 [Doxorubicin]
Conditions	Bliss interaction score
B. subtilis 168	0.0583
S. aureus DSM 20231 [1]	0.0943
S. aureus Newman [2]	-0.0449
S. pneumoniae D39V [3]	-0.071

Conditions	fitness
S. aureus DSM 20231 [4], first compound 0.0625 µg/mL, partner 0.625 µg/mL	0.541
S. aureus DSM 20231 [4], first compound 0.0625 µg/mL, partner 1.25 µg/mL	0.511
S. aureus DSM 20231 [4], first compound 0.0625 µg/mL, partner 2.5 µg/mL	0.493
S. aureus DSM 20231 [4], first compound 0.125 µg/mL, partner 0.625 µg/mL	0.443
S. aureus DSM 20231 [4], first compound 0.125 µg/mL, partner 1.25 µg/mL	0.423
S. aureus DSM 20231 [4], first compound 0.125 µg/mL, partner 2.5 µg/mL	0.461
S. aureus DSM 20231 [4], first compound 0.25 µg/mL, partner 0.625 µg/mL	0.187
S. aureus DSM 20231 [4], first compound 0.5 µg/mL, partner 0.625 µg/mL	0.0064
S. aureus DSM 20231 [4], first compound 0.5 µg/mL, partner 1.25 µg/mL	0
S. aureus DSM 20231 [4], first compound 0.5 µg/mL, partner 2.5 µg/mL	0.012
S. aureus Newman [5], first compound 0.0625 µg/mL, partner 0.625 µg/mL	0.756
S. aureus Newman [5], first compound 0.0625 µg/mL, partner 1.25 µg/mL	0.738
S. aureus Newman [5], first compound 0.0625 µg/mL, partner 2.5 µg/mL	0.686
S. aureus Newman [5], first compound 0.125 µg/mL, partner 0.625 µg/mL	0.774
S. aureus Newman [5], first compound 0.125 µg/mL, partner 1.25 µg/mL	0.742
S. aureus Newman [5], first compound 0.125 µg/mL, partner 2.5 µg/mL	0.79
S. aureus Newman [5], first compound 0.25 µg/mL, partner 0.625 µg/mL	0.729
S. aureus Newman [5], first compound 0.25 µg/mL, partner 1.25 µg/mL	0.735
S. aureus Newman [5], first compound 0.25 µg/mL, partner 2.5 µg/mL	0.712
S. pneumoniae D39V [6], first compound 0.0008 µg/mL, partner 0.25 µg/mL	0.961
S. pneumoniae D39V [6], first compound 0.0008 µg/mL, partner 0.5 µg/mL	0.941
S. pneumoniae D39V [6], first compound 0.0008 µg/mL, partner 1 µg/mL	0.882
S. pneumoniae D39V [6], first compound 0.0015 µg/mL, partner 0.25 µg/mL	0.892
S. pneumoniae D39V [6], first compound 0.0015 µg/mL, partner 0.5 µg/mL	0.855
S. pneumoniae D39V [6], first compound 0.0015 µg/mL, partner 1 µg/mL	0.921
S. pneumoniae D39V [6], first compound 0.003 µg/mL, partner 0.25 µg/mL	0.838
S. pneumoniae D39V [6], first compound 0.003 µg/mL, partner 0.5 µg/mL	0.837
S. pneumoniae D39V [6], first compound 0.003 µg/mL, partner 1 µg/mL	0.788

S. pneumoniae D39V [6], first compound 0.006 µg/mL, one replicate
Conditions	fitness
partner 0.25 µg/mL	0.317
partner 0.5 µg/mL	0.314
partner 1 µg/mL	0.399

CC1(C)S[C@@H]2[C@H](NC(=O)[C@H](N)c3ccc(O)cc3)C(=O)N2[C@H]1C(=O)O [Amoxicillin] + C[C@@H]1O[C@@H]1P(=O)(O)O [Fosfomycin]
Conditions	Bliss interaction score
B. subtilis 168	0.102
S. aureus DSM 20231 [1]	-0.169
S. aureus Newman [2]	0.0512
S. pneumoniae D39V [3]	-0.113

Conditions	fitness
S. aureus DSM 20231 [4], first compound 0.0625 µg/mL, partner 0.781 µg/mL	0.469
S. aureus DSM 20231 [4], first compound 0.0625 µg/mL, partner 1.562 µg/mL	0.369
S. aureus DSM 20231 [4], first compound 0.0625 µg/mL, partner 3.124 µg/mL	0.0511
S. aureus DSM 20231 [4], first compound 0.125 µg/mL, partner 0.781 µg/mL	0.278
S. aureus DSM 20231 [4], first compound 0.125 µg/mL, partner 1.562 µg/mL	0.0267
S. aureus DSM 20231 [4], first compound 0.125 µg/mL, partner 3.124 µg/mL	0.0388
S. aureus DSM 20231 [4], first compound 0.25 µg/mL, partner 0.781 µg/mL	0.0416
S. aureus DSM 20231 [4], first compound 0.25 µg/mL, partner 1.562 µg/mL	0.0638
S. aureus DSM 20231 [4], first compound 0.25 µg/mL, partner 3.124 µg/mL	0.038
S. aureus Newman [5], first compound 0.0625 µg/mL, partner 0.781 µg/mL	0.612
S. aureus Newman [5], first compound 0.0625 µg/mL, partner 1.562 µg/mL	0.506
S. aureus Newman [5], first compound 0.125 µg/mL, partner 0.781 µg/mL	0.597
S. aureus Newman [5], first compound 0.125 µg/mL, partner 3.124 µg/mL	0.185
S. aureus Newman [5], first compound 0.25 µg/mL, partner 0.781 µg/mL	0.567
S. aureus Newman [5], first compound 0.25 µg/mL, partner 3.124 µg/mL	0.096
S. pneumoniae D39V [6], first compound 0.0008 µg/mL, partner 1.25 µg/mL	0.938
S. pneumoniae D39V [6], first compound 0.0008 µg/mL, partner 2.5 µg/mL	0.893
S. pneumoniae D39V [6], first compound 0.0008 µg/mL, partner 5 µg/mL	0.803
S. pneumoniae D39V [6], first compound 0.0015 µg/mL, partner 1.25 µg/mL	0.914
S. pneumoniae D39V [6], first compound 0.0015 µg/mL, partner 2.5 µg/mL	0.887
S. pneumoniae D39V [6], first compound 0.0015 µg/mL, partner 5 µg/mL	0.672
S. pneumoniae D39V [6], first compound 0.003 µg/mL, partner 1.25 µg/mL	0.877
S. pneumoniae D39V [6], first compound 0.003 µg/mL, partner 2.5 µg/mL	0.834
S. pneumoniae D39V [6], first compound 0.003 µg/mL, partner 5 µg/mL	0.531

fitness, one replicate
Conditions	partner 0.781 µg/mL	partner 1.25 µg/mL	partner 1.562 µg/mL	partner 2.5 µg/mL	partner 3.124 µg/mL	partner 5 µg/mL
S. aureus DSM 20231 [4], first compound 0.5 µg/mL	0.0154	–	0.0129	–	0.0057	–
S. pneumoniae D39V [6], first compound 0.006 µg/mL	–	0.339	–	0.279	–	0.146

CC1(C)S[C@@H]2[C@H](NC(=O)[C@H](N)c3ccc(O)cc3)C(=O)N2[C@H]1C(=O)O [Amoxicillin] + C[n+]1ccc(-c2cc[n+](C)cc2)cc1 [Paraquat]
Conditions	Bliss interaction score
B. subtilis 168	-0.061
S. aureus DSM 20231 [1]	0.0506
S. aureus Newman [2]	0.0578
S. pneumoniae D39V [3]	-0.0705

Conditions	fitness
S. aureus DSM 20231 [4], first compound 0.0625 µg/mL, partner 1.25 µg/mL	0.512
S. aureus DSM 20231 [4], first compound 0.0625 µg/mL, partner 2.5 µg/mL	0.517
S. aureus DSM 20231 [4], first compound 0.0625 µg/mL, partner 5 µg/mL	0.488
S. aureus DSM 20231 [4], first compound 0.125 µg/mL, partner 1.25 µg/mL	0.433
S. aureus DSM 20231 [4], first compound 0.125 µg/mL, partner 2.5 µg/mL	0.498
S. aureus DSM 20231 [4], first compound 0.125 µg/mL, partner 5 µg/mL	0.431
S. aureus DSM 20231 [4], first compound 0.25 µg/mL, partner 2.5 µg/mL	0.0563
S. aureus DSM 20231 [4], first compound 0.25 µg/mL, partner 5 µg/mL	0.0722
S. aureus Newman [5], first compound 0.0625 µg/mL, partner 1.25 µg/mL	0.89
S. aureus Newman [5], first compound 0.0625 µg/mL, partner 2.5 µg/mL	0.87
S. aureus Newman [5], first compound 0.0625 µg/mL, partner 5 µg/mL	0.86
S. aureus Newman [5], first compound 0.125 µg/mL, partner 1.25 µg/mL	0.861
S. aureus Newman [5], first compound 0.125 µg/mL, partner 2.5 µg/mL	0.885
S. aureus Newman [5], first compound 0.125 µg/mL, partner 5 µg/mL	0.838
S. aureus Newman [5], first compound 0.25 µg/mL, partner 5 µg/mL	0.829
S. pneumoniae D39V [6], first compound 0.0008 µg/mL, partner 1.5 µg/mL	≥ 1
S. pneumoniae D39V [6], first compound 0.0008 µg/mL, partner 3 µg/mL	0.961
S. pneumoniae D39V [6], first compound 0.0008 µg/mL, partner 6 µg/mL	0.921
S. pneumoniae D39V [6], first compound 0.0015 µg/mL, partner 1.5 µg/mL	0.988
S. pneumoniae D39V [6], first compound 0.0015 µg/mL, partner 3 µg/mL	0.939
S. pneumoniae D39V [6], first compound 0.0015 µg/mL, partner 6 µg/mL	0.913
S. pneumoniae D39V [6], first compound 0.003 µg/mL, partner 1.5 µg/mL	0.96
S. pneumoniae D39V [6], first compound 0.003 µg/mL, partner 3 µg/mL	0.847
S. pneumoniae D39V [6], first compound 0.003 µg/mL, partner 6 µg/mL	0.864

fitness, one replicate
Conditions	partner 1.25 µg/mL	partner 1.5 µg/mL	partner 2.5 µg/mL	partner 3 µg/mL	partner 5 µg/mL	partner 6 µg/mL
S. aureus DSM 20231 [4], first compound 0.5 µg/mL	0.0127	–	0.0289	–	0.0485	–
S. pneumoniae D39V [6], first compound 0.006 µg/mL	–	0.542	–	0.561	–	0.422
